According to US8076101B2, “Method of detecting the cystic fibrosis transmembrane conductance regulator (CFTR) at cell exterior” (priority 2003, dated 2011):
Entries after “also recorded” stand apart in the source; their conditions may differ. Residues, ends and D or L forms follow the SMILES beside them. *: point of attachment. Cbz = O=C(OCc1ccccc1)*

Columns and labels:
Format in all cases: cell-based
Extope-ΔF508 CFTR = test: Immunofluorescence microscopy of externally labeled Extope-ΔF508 CFTR after re-incubation with protease inhibitors; settings: re-incubated at 37° C. for 7 hours
Protocol: FIG. 10B. […] Cell surface Extope-CFTR or Extope-ΔF508 CFTR were labeled with 16B12 as described in FIG. 2A. Cells were re-incubated at 37° C. for 7 hours with either lysosomal inhibitors pepstatin-A and leupeptin (Pep+Leu, each 50 μg/ml) and E64 (3.5 μg/ml) or proteasomal inhibitors lactacystin (50 μM) and MG132 (50 μM) or without drug (control) and stained for immunofluorescence microscopy. Nuclei were stained with propidium iodide.
Cells were treated with lysosomal inhibitors pepstatin-A and leupeptin as described in FIG. 5B. Extope-ΔF508 CFTR was labeled with 16B12 at the cell surface and detected 7 hours later using goat anti-mouse IgG Alexa Fluor 488 conjugate. Lysosomes were labeled with Lysotracker Red (Molecular Probes).

[1] = tested on: Extope-CFTR and ΔF508 CFTR; test: Chemiluminescence assay of cell surface Extope-CFTR and ΔF508 CFTR retained after reincubation; settings: lactacystin 25 μM, reincubated for indicated times, 8 replicates
Protocol: FIG. 10D. […] Extope-CFTR and ΔF508 CFTR were labeled on intact pre-cooled cells on ice for 30 minutes with 16B12 mAb and cells were reincubated in the presence or absence of lactacystin (25 μM) for indicated times. Cell surface Extope-CFTR was detected in a chemiluminescence assay at indicated times using sheep anti-mouse peroxidase conjugate and chemiluminescence. Each experiment was performed with 8 replicates and standard deviations are indicated.

[2] = tested on: ΔF508 CFTR with modified EL2 (XT-ΔF508); test: Quantitative luminescence detection of XT-ΔF508 CFTR at surface of cells in 96 well microtiter plates
Protocol: FIG. 6. Quantitative detection of CFTR with EL2 epitope (XT-CFTR) at surface of cells grown in 96 well microtiter plates. Cells were washed, fixed and exposed to an antibody recognizing the external epitope, washed again and incubated with a horseradish peroxidase coupled second antibody and then with a peroxidase substrate that becomes luminescent after peroxidation. Luminescent signals in each well were quantitated in either a Packard Microplate Luminescence Counter or a Perkin Elmer VICTOR^2 Multilabel Counter. […] The corresponding quantitative signals are shown below.
To provide a more facile and quantifiable means of detecting EL2 modified CFTR on the cell surface, cells were plated on 96-well microtiter plates. The amount of surface epitope was measured either by luminometry or time resolved fluorescence. After incubation with a primary unlabeled mouse antibody to the epitope (HA11, Babco) and washing, a secondary horseradish peroxidase coupled antibody recognizing mouse IgG was added followed by peroxidase substrate that luminesces when peroxidized. Luminescence was measured in each well in one of two different luminescence plate readers. A strong signal is obtained in the replicate row of wild-type XT-CFTR expressing cells and signals of strengthening intensity are obtained in rows of XT-ΔF508 cells grown at 28° C. with increasing concentrations of butyrate.

XT-ΔF508 CFTR = test: cyclic AMP stimulated 36Cl efflux (CFTR chloride channel activity); settings: grown at 28° C. with 2 mM sodium butyrate for 48 h; forskolin (10 μM) and IBMX (1 mM)
Protocol: FIG. 5. CFTR chloride channel activity as monitored by ^36Cl efflux from cells expressing wild-type CFTR (◯), ΔF508 CFTR without (♦) or with (▴) 2 mM sodium butyrate or no CFTR (□). Cells were preloaded with ^36Cl and then exposed to forskolin (10 μM) and IBMX (1 mM) at time 0. The amounts of ^36Cl radioactivity released from the cells in subsequent 1 min intervals was monitored by scintillation counting.
To determine the functional capability of the EL2 modified variants, rates of cyclic AMP stimulated ^36Cl efflux from cells expressing them were measured. The rate of efflux from cells expressing wild-type XT-CFTR was similar to that with unmodified wild-type (FIG. 5).

For `CC(C)C[C@H](NC(=O)[C@H]1O[C@@H]1C(=O)O)C(=O)NCCCCN=C(N)N` [E64], which “endocytic turn over of ΔF508-CFTR” value (Extope-ΔF508 CFTR; 3.5 μg/ml) is on record?
Its value is “inhibit endocytic turn over”.

`CC(C)C[C@@H](C=O)NC(=O)[C@H](CC(C)C)NC(=O)[C@H](CC(C)C)NC(=O)OCc1ccccc1` [MG132] (Cbz-Leu-Leu-Leu-aldehyde) was tested. Which “endocytic turn over of ΔF508-CFTR” value (Extope-ΔF508 CFTR; 50 μM) did it give?
Its value is “inhibit endocytic turn over”.

What does the source list for `CC(=O)N[C@@H](CSC(=O)[C@]1([C@@H](O)C(C)C)NC(=O)[C@H](C)[C@@H]1O)C(=O)O` [lactacystin]?
endocytic turn over of ΔF508-CFTR (Extope-ΔF508 CFTR; 50 μM): inhibit endocytic turn over; amount of CFTR retained at the cellular surface [1]: increases the amount of CFTR retained at the cellular surface

What does the source list for `CCCC(=O)[O-].[Na+]` [sodium butyrate]?
amount of ΔF508 CFTR with modified EL2 detected at the cell surface (luminescent signal) ([2]; cells grown at 28° C. for 24 h, increasing concentrations of sodium butyrate): Increasing amounts; XT-ΔF508 surface luminescence signal relative to wild-type XT-CFTR ([2]; cells grown at 28° C., maximal butyrate dose): more than half that of the wild-type; 36Cl efflux from ΔF508 CFTR expressing cells relative to wild-type (XT-ΔF508 CFTR): more closely approaches those of wild-type; also recorded: nearly as great as from cells expressing wild-type CFTR
